Series [1] has as its system athymic rats. The series can be described thus: Previous in vivo sensitivity studies of a similar combination product with unmodified cells. Particulars: unmodified-cell combination product, drug in chow.
Excerpt: (§1) The administration of the calcineurin inhibitors was achieved through formulation into the chow fed to the animals (athymic rats).
The subject of a further series is PEC-211 cells. The series can be described thus: In vitro differentiation of PEC-211 to stage 6 in presence of Tacrolimus, flow cytometry. The class given is cell-based, human. Particulars: 0.1 μM, 10 days. The method, then:
Evaluation of the PEC-211 cells in the presence of Tacrolimus was performed in vitro. Stage 4 Pancreatic progenitor PEC-211 cells were further differentiated to stage 6 to produce matured islet like cell population in presence of 0.1 μM of Tacrolimus for 10 days. Control PEC-211 cells were not treated with Tacrolimus.

The next series relates to VCTX211 implants. The series can be described thus: GSIS test of VCTX211 implants under calcineurin inhibitor chow.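 Note: athymic nude rats each carrying two subcutaneous VCTX211-loaded perforated delivery devices, fed calcineurin inhibitor or control chow.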 The format is in vivo, Rat (Rattus norvegicus).
Series [2] has as its system athymic rats. Particulars: rat, in vivo.
Excerpt: as §1
The format of series [3] is in vivo, Rat (Rattus norvegicus).
Excerpt: Prior to implant, 30 male athymic nude rats (described in Table 19) were randomly assigned to three groups of ten animals each, and unbiased weight distribution was confirmed. […] At implant, each animal was surgically implanted subcutaneously with two VCTX test articles. The animals then continued to receive their respective chow. Group 1 and 3 animals received their respective chow for 12 weeks, while Group 2 animals only tolerated the tacrolimus-containing chow for 3 weeks. […] At 12 weeks, all animals were switched to standard rodent chow (Teklad 2920X, Envigo).
Setting [4] is: individual animals, serum, 90 min after glucose.
Setting [5] is: individual animals, serum, fasted.

Values joined by “and” are separate entries in the source; they are usually repeats but may differ in a detail not shown here. Identical values can stand only once.

Excerpt for VCTX211 implants: Provided in this Example are in vivo efficacy evaluations of VCTX211 combination products (e.g., genetically modified cells loaded into a perforated delivery device) to assess potential sensitivity of exposure to calcineurin inhibitors. In this study, athymic nude rats each received two implants of compositions comprising genetically modified cells disclosed herein (e.g., VCTX211) each.
VCTX211 test articles (e.g., perforated delivery devices loaded with genetically modified cells disclosed herein) were first generated with pancreatic endoderm cell (PEC-211; e.g., comprising B2M KO and KI of TNFAIP3 and PD-L1; and KO of TXNIP and KI of MANF and HLA-E) aggregates derived from VCTX211 stem cell progenitor cells. To do so, the thaw and culture of PEC-211 aggregates was first performed in roller bottles. On the third day post-thaw, 20 μL aliquots of settled pellet volume (approximately 9×10^6 cells) were prepared and loaded into sterilized PD20 devices (e.g., perforated cell delivery device) to produce VCTX test articles. […] After formulation, test articles were maintained at room temperature in 10 mL storage tubes with media for 2 days.
Prior to implant, 30 male athymic nude rats (described in Table 19) were randomly assigned to three groups of ten animals each, and unbiased weight distribution was confirmed. […] At implant, each animal was surgically implanted subcutaneously with two VCTX test articles. The animals then continued to receive their respective chow. […] At 12 weeks, all animals were switched to standard rodent chow (Teklad 2920X, Envigo).

Turning to `C=CC[C@@H]1/C=C(\C)C[C@H](C)C[C@H](OC)[C@H]2O[C@@](O)(C(=O)C(=O)N3CCCC[C@H]3C(=O)O[C@H](/C(C)=C/[C@@H]3CC[C@@H](O)[C@H](OC)C3)[C@H](C)[C@@H](O)CC1=O)[C@H](C)C[C@@H]2OC` [TAC, tacrolimus], the “effect on development or function of beta cells derived from the implants” value in the series with athymic rats [1] is “did not appear to affect”. Further, the “effect on in vitro differentiation to islet cells” value in the series with PEC-211 cells is recorded as “did not affect”. Also, in the series on PEC-211 cells (Stage 6 cells, flow cytometry), the “CHGA-NKX6.1+ PDX1+ or- (Pancreatic Progenitor)” value is reported as 16.9, the “Total CHGA+” value was found to be 76.3, the “Total GCG+” value worked out at 36.6 and the “Total INS+” value was determined as 70.4. Also, the “Total NKX6.1+” value in the series with PEC-211 cells (Stage 6 cells, flow cytometry) is given as 48.7. For the same molecule, in the series on VCTX211 implants (cyclosporine A 12 weeks, tacrolimus 3 weeks), the “functional development of VCTX211 grafts, evaluated with GSIS tests, compared to control animals” value was “not affected”. For the same molecule, the “C-peptide, 16 Weeks, 60 min” value in the series with VCTX211 implants (individual animals, serum, 60 min after glucose) is 1131 pM and 1798 pM and 720 pM and 1365 pM and 3073 pM and 700 pM. For the same molecule, in the series with VCTX211 implants (setting [4]), the “C-peptide, 12 Weeks, 90 min” value was 1933 pM and 1504 pM and 627 pM and 428 pM and 1178 pM and 1271 pM; the “C-peptide, 16 Weeks, 90 min” value is 1312 pM and 1545 pM and 1271 pM and 1207 pM and 1782 pM and 1140 pM. In addition, in the series with VCTX211 implants (setting [5]), the “C-peptide, 12 Weeks, Fast” value was 113 pM and 123 pM and 119 pM and 107 pM and 147 pM and 109 pM; the “C-peptide, 16 Weeks, Fast” value was 282 pM and 253 pM and 273 pM and 227 pM and 302 pM and 219 pM. Besides, in the series on athymic rats [2], the “dose-limiting finding preventing increased exposure” value was “toxicity resulting in inappetence and severe weight loss”; the “exposure levels versus target levels for prophylactic use in clinical organ transplantation” value was “below target levels”. For the same molecule, in series [3] (by 3 weeks, group of 10), the “animals died or euthanized in extremis” value came to 3 animals. In addition, the “average loss of body weight” value in series [3] (rat, in vivo) worked out at 8%.
